Test results published in paper PMC3791449, “Mechanism of amyloid β−protein dimerization determined using single−molecule AFM force spectroscopy” (Scientific Reports, 2013).
“Also recorded” adds a separate entry of the source.

Key:
misfolded Aβ dimers [1] = test: Dynamic force spectroscopy (DFS) of misfolded Aβ dimers; type: binding, human; conditions: for koff (dissociation rate without applied force) / xβ (potential barrier location): Bell-Evans fit; for koff (dissociation rate without applied force): extrapolated to zero force; for barrier height (ΔG) of dimer dissociation: from mean koff of independent experiments, equation (4); for dimer lifetime (1/koff): zero applied force
Method: The cysteinyl−peptides were covalently immobilized on the tip and the surface via flexible tethers terminated with maleimide groups. […] Peptide aggregation was minimized by using a very low peptide concentration (20 nM) during the coupling reaction with the functionalized mica surface and the tips. Probing was performed by multiple approach−retraction cycles over various spots of the mica surface.
In the DFS approach, multiple force measurements were performed at different pulling rates and the data were grouped into several clusters according to the selected loading rates. […] After extrapolating the data to the zero pulling rate, the intercept and the slope of the linear plots (DFS spectrum) produced characteristics of the complexes, including their stability (off−rate constant koff) and the energy barrier position (xβ)[20][21].
The mean values were calculated from this dataset (Supplementary Table S1) and equation (4) (see Methods) was used to extract the barrier height (ΔG), along with xβ values, to generate the energy profile for the Aβ40 dissociation process.
All cysteinyl−Aβ peptides were synthesized using 9−fluorenylmethoxycarbonyl (FMOC) chemistry and purified by reverse phase high performance liquid chromatography (RP−HPLC). […] Functionalization of AFM tips and mica substrates were prepared according to previously published procedures. Briefly, 20 nM Aβ monomers were immobilized on mica functionalized with aminopropyl silatrane (APS) via PEG 3400 tethers and on AFM tips through maleimide silatrane (MAS). For DFS study, the tip retraction speeds ranged from 100 nm/s to 4000 nm/s. The dwell time was set at 0.3 s when retraction speed reached 1000 nm/s and above. Force curves with rupture event were subject to WLC analysis, as shown below. [drawing 1] Rupture force distributions were fitted with a probability density function: [drawing 2] Dynamic force spectra were fitted with Bell−Evans model[21]: [drawing 3] The energy profiles were reconstructed according to previous papers, using the equation below. [drawing 4] Positions of interacting segments of Aβ monomers within dimers were estimated by subtracting from the measured contour lengths the lengths of all linkers and the distance between N−termini of monomers (see Fig. 1a). The contour length of PEG was estimated with the following equation[28]: [drawing 5] Where Lc(F) is the contour length, Ns is the average number of monomers, Lplanar is the length of monomers with planar conformation, Lhelical is the length of monomers with helical conformation, ΔG(F) is the free energy difference at zero appling force. The Ns is 77 ± 10 for 3400 Da PEG. The Lplanar and Lhelical are 3.58 Å and 2.8 Å, respectively. The ΔG(F) is fixed at 3 kBT. […] All error bars represent SEM. Detailed methods can be found in Supplementary Information.
A 50 mM 1−(3−aminopropyl) silatrane (APS) stock solution was prepared by dissolving the APS powder in deionized (DI) water. The 1.67 mM stock solution of maleimide−polyethylene glycol−succinimidyl valerate (MAL−PEG−SVA; 3.4 kDa Laysan Bio Inc, Arab, AL) was prepared in DMSO (Sigma−Aldrich Inc.) and stored at −20°C. The 10 mM Tris (2−carboxyethyl) phosphine (TCEP) hydrochloride (Hampton Research Inc.) and the 2.94 mM solution of maleimide silatrane (MAS) were prepared in DI water and stored at −20°C. A 10 mM stock solution of β−mercaptoethanol was prepared in 10 mM sodium phosphate, pH 7.4 (“phosphate buffer”) and kept at 4°C. Unless otherwise specified, other reagents used in the experiments were of analytical grade from Sigma−Aldrich.

misfolded Aβ dimers [2] = test: Contour length analysis of interacting segments within Aβ dimers; type: binding, human; conditions: contour length profiles, Fig. 5
Description: We used the contour length measurements to identify segments of the peptides involved in dimer formation. The measured contour length is comprised of the length of the flexible tethers used for peptide immobilization and the length of the segment of the peptide from the anchoring point to the rupture position. The latter, according to the schematic in Fig. 1, was obtained by subtracting the lengths of all linkers from the measured contour lengths.
Probing interactions of Aβ peptides within a dimer by SMFS provides a pattern of peptide interactions within the dimers. According to the immobilization procedure, the peptide is covalently bound at its N−terminal cysteine. The experimentally measured contour length consists of two major components, the lengths of the flexible tethers used for peptide immobilization and the length of the peptide segment between the N−terminus and the segment of the peptide involved in interpeptide interactions. Therefore, the position of the peak on the force−distance curve is defined by the peptide length between the N−terminus and the interacting segment. […] The closer the interacting segment is to the N−terminus, the shorter the contour length will be when measured by AFM. […] The contour length of PEG 3400 was estimated to be 22.0 ± 0.9 nm[28]. Lengths of both aminopropyl silatrane (APS) and MAS were ~ 2.5 nm[13]. Therefore, the total length of all linkers was 24.5 ± 0.9 nm. In addition, the distance between N−termini of two peptides was estimated to be 1.0 nm.
All cysteinyl−Aβ peptides were synthesized using 9−fluorenylmethoxycarbonyl (FMOC) chemistry and purified by reverse phase high performance liquid chromatography (RP−HPLC). The identity and purity (usually > 97%) of the peptides were confirmed by amino acid analysis followed by mass spectrometry and RP−HPLC. Functionalization of AFM tips and mica substrates were prepared according to previously published procedures. Briefly, 20 nM Aβ monomers were immobilized on mica functionalized with aminopropyl silatrane (APS) via PEG 3400 tethers and on AFM tips through maleimide silatrane (MAS). For DFS study, the tip retraction speeds ranged from 100 nm/s to 4000 nm/s. The dwell time was set at 0.3 s when retraction speed reached 1000 nm/s and above. Force curves with rupture event were subject to WLC analysis, as shown below. [drawing 1] Rupture force distributions were fitted with a probability density function: [drawing 2] Dynamic force spectra were fitted with Bell−Evans model[21]: [drawing 3] […] Positions of interacting segments of Aβ monomers within dimers were estimated by subtracting from the measured contour lengths the lengths of all linkers and the distance between N−termini of monomers (see Fig. 1a). […]

[3] = experiment #1, retraction 100-4000 nm/s
[4] = experiment #1, retraction 100-4000 nm/s, approach 400 nm/s, trigger force 100 pN, dwell 0.3 s at ≥1000 nm/s, N-terminal Cys tethered, 20 nM coupling
[5] = experiment #2, retraction 100-4000 nm/s
[6] = experiment #3, retraction 100-4000 nm/s
[7] = mean ± SEM of three experiments
[8] = mean ± SEM of three experiments, retraction 100-4000 nm/s
[9] = mean ± SEM of three experiments, DFS

Substance	koff (dissociation rate without applied force) (misfolded Aβ dimers [1]; [3])	xβ (potential barrier location) (misfolded Aβ dimers [1]; [4])	koff (dissociation rate without applied force) (misfolded Aβ dimers [1]; experiment #2)	xβ (potential barrier location) (misfolded Aβ dimers [1]; [5])	koff (dissociation rate without applied force) (misfolded Aβ dimers [1]; experiment #3)	xβ (potential barrier location) (misfolded Aβ dimers [1]; [6])	barrier height (ΔG) of dimer dissociation (misfolded Aβ dimers [1])	koff (dissociation rate without applied force) (misfolded Aβ dimers [1]; [7])	xβ (potential barrier location) (misfolded Aβ dimers [1]; [8])	dimer lifetime (1/koff) (misfolded Aβ dimers [1]; [9])	predominant interpeptide interaction pattern in dimer (misfolded Aβ dimers [2])	lifetime increase of dimer vs WT counterpart (misfolded Aβ dimers [1]; DFS, [VPV] mutant vs wild type)
Aβ40: alloform of human amyloid β−protein; cysteinyl−Aβ peptide, Cys residue placed at the N−terminus	9.4 s⁻¹	0.203 nm	4.7 s⁻¹	0.257 nm	12.9 s⁻¹	0.206 nm	27.3 kBT	9.0 ± 2.4 s⁻¹	0.222 ± 0.018 nm	0.11 s	primary interactions that occur via the N−termini; also recorded: predominate contribution of N−terminal interactions	–
[VPV]Aβ40: Aβ40 mutant with VPV substitutions (Gly33Val−Val36Pro−Gly38Val); cysteinyl−peptide	2.2 s⁻¹	0.361 nm	1.7 s⁻¹	0.293 nm	1.9 s⁻¹	0.262 nm	28.8 kBT	1.9 ± 0.1 s⁻¹	0.305 ± 0.029 nm	0.53 s	increased interactions between the central and C−terminal segments	–
[VPV]Aβ42: Aβ42 with VPV substitutions (Gly33Val−Val36Pro−Gly38Val); cysteinyl−peptide	1.1 s⁻¹	0.451 nm	2.1 s⁻¹	0.337 nm	1.5 s⁻¹	0.387 nm	29.0 kBT	1.6 ± 0.3 s⁻¹	0.392 ± 0.034 nm	0.63 ± 0.12 s	interactions within the central segments	more than three times higher
Aβ42: alloform of human amyloid β−protein with two additional C−terminal residues; cysteinyl−peptide	–	0.299 nm	–	0.260 nm	–	0.262 nm	–	–	0.274 ± 0.013 nm	–	interactions within the C−terminus	–
